In brackets after ≈: the same amount, converted by molar mass. Read-outs that look alike come from different tables or passages of the source.
Key:
[1] = Solubility in water at 30°C of carboxyl group-containing compounds; conditions: for solubility: distilled water, 30 °C, water, thermodynamic from solid

Compound	solubility [1] [mg/mL]	also measured
O=C(O)C1CCCCC1C(=O)O (stereo not drawn) [hexahydrophthalic acid]	1.5 (≈ 8.71 mM)	–
O=C(O)C1CCC(C(=O)O)C(C(=O)O)C1 (stereo not drawn) [hydrogenated trimellitic acid]	–	solubility in water (30°C) ([1]; weight of solute per 1 L of distilled water in a saturated aqueous solution at 30°C): 300 g/L (≈ 1390 mM)
O=C(O)/C=C\C(=O)O [maleic acid]	800 (≈ 6890 mM)	–
O=C(O)c1ccccc1C(=O)O [phthalic acid]	9 (≈ 54.2 mM)	–
O=C(O)c1ccc(C(=O)O)c(C(=O)O)c1 [trimellitic acid]	20 (≈ 95.2 mM)	–
tetrahydrophthalic acid	–	solubility in water (30°C): 5 g/L

Source: patent publication EP2599815B1, “POLYCARBOXYLIC ACID CONDENSATE, THERMOSETTING RESIN COMPOSITION, SUBSTRATE FOR MOUNTING SEMICONDUCTOR ELEMENT AND PROCESS FOR PRODUCING SAME, AND SEMICONDUCTOR DEVICE” (Hitachi Chemical Co., Ltd., priority 2010, dated 2012)
